Measurements published in patent US20230039836A1, “AROMATIC SULPHONAMIDES DERIVATIVES THAT INHIBITS PDI A3, THEIR SYNTHESIS AND USE” (Uniwersytet Jagiellonski, priority 2020, published 2023).

What was measured:
[1] = target: T1, PDI A1 (Homo sapiens, UniProt P07237); test: Insulin turbidometric assay, inhibition of PDI A1; format: biochemical; conditions: insulin reduction, turbidity at 650 nm, 60 min incubation at 37° C.; read-out: Inhibition of PDI A1 (EC 50)
T1 construct: purchased Mybiosource; host or cells: E. coli
Method: The inhibitory effects compounds of invention on activity of PDI A1 was assess based on the insulin turbidometric assay. Enzymatic activity of PDIA1 was confirmed by measuring the turbidity increase at 650 nm due to insulin reduction. The assay mixture was prepared by addition 10 ug/ml PDIA1 (E.coli recombinant protein; Mybiosource), 0.1 mM phosphate buffer (pH7.6), 1 mM EDTA, 0.087 mM DTT and with or without tested compound and was incubated for 60 min, at 37° C. Reaction was started by addition insulin and DTT. Final concentration of insulin and DTT in assay mixture was 0.15 mM and 0.174 mM, respectively. Turbidity was detected at 650 nm against reference samples without PDI A1s. The measurements were performed at 650 nm using 120-s recordings.

[2] = tested on: Caco-2 (human colon adenocarcinoma); test: MTT antiproliferative assay, 48 h; format: cell-based; conditions: Homo sapiens, Caco-2, 48-hour exposition, read-out: Cytotoxicity, IC50, µM CaCo-2
Method: (§1) About 2000-4000 cells per well (depending on line nature) were placed in 96-well plates and after 24 h compounds were added to the wells. Untreated cells were used as a control. The plates were incubated for 48 h, 37° C., 5% CO2. The number of surviving cells was determined using 3-(4,5-dimethylthiazol-2-yl)-2,5-diphenyltetrazolinium bromide (MTT). MTT-test: after incubating culture medium was removed and 200 µL fresh medium with 20 µL MTT (2 mg/mL in HBSS) was added in each well of the plate. After incubation (3 hr., 37° C., 5% CO2), the medium with MTT was removed and 200 µL DMSO were added at once to each sample. The samples were tested at 540 nm on Thermo Scientific Multiskan EX microplate photometer. The half-maximal inhibitory concentration (IC50) of each compound was calculated using Graph Pad Prism® 3.0.

[3] = tested on: HT-1080 (human fibrosarcoma); test: MTT antiproliferative assay, 48 h; format: cell-based; conditions: 48-hour exposition, read-out: Cytotoxicity, IC50, µM HT-1080
Method: as §1

[4] = tested on: MDA-MB-231 (human mammary breast adenocarcinoma); test: MTT antiproliferative assay, 48 h; format: cell-based; conditions: Homo sapiens, MDA-MB-231, 48-hour exposition, read-out: Cytotoxicity, IC50, µM MDA-MB-231
Method: as §1

[5] = tested on: MCF-7 (human breast adenocarcinoma, estrogen-positive); test: MTT antiproliferative assay, 48 h; format: cell-based; conditions: Homo sapiens, MCF7, 48-hour exposition, read-out: Cytotoxicity, IC50, µM MCF-7
Method: as §1

[6] = tested on: Lewis Lung Carcinoma (LLC); test: Murine model of Lewis Lung Carcinoma; format: in vivo, mice; conditions: in vivo, FIG. 5; for Effect on animal weight: no evident toxicity
Method: To confirm anticancer activity of selected compounds of invention, PDI A1-inhibitors in vivo, selected compounds of invention were tested in the murine model of Lewis Lung Carcinoma (LLC). The Lewis Lung Carcinoma (LLC) cell line was obtained from the ATCC collection and was cultured in a humidified atmosphere of 5% CO2 at 37° using Dulbecco’s modified Eagle’s medium (DMEM) that contained 10% bovine serum (Sigma). Female (6-8 weeks old) C57BL/6 mice (purchased from Envigo RMS. BV., Nederland) were acclimated for one week and were fed with animal chow and water ad libitum. The C57BL/6 mice were injected s.c. with 0.5 × 10^5 LLC cells per mice in 100 µL PBS. Compounds were dissolved in DMSO and then 0.9% NaCl (DMSO final concentration 1%) were added. In each treatment group, i.p. injections of 100 µl compound were started on 1 day after tumor inoculation. Control animals injected with equal volume of 0.9% NaCl with 1% DMSO administered in the same schedule as other groups. Tumor larger radius (a) and smaller radius (b) were measured by calipers. The tumor volume (Tv) was calculated according the following formulaTv = V=4 • ab2/3. The mice in control group were sacrificed 17 days after tumor establishment. Tumor tissues were dissected, weighed and frozen in OCT compound.

T1 sequence (P07237 18-508, species assumed): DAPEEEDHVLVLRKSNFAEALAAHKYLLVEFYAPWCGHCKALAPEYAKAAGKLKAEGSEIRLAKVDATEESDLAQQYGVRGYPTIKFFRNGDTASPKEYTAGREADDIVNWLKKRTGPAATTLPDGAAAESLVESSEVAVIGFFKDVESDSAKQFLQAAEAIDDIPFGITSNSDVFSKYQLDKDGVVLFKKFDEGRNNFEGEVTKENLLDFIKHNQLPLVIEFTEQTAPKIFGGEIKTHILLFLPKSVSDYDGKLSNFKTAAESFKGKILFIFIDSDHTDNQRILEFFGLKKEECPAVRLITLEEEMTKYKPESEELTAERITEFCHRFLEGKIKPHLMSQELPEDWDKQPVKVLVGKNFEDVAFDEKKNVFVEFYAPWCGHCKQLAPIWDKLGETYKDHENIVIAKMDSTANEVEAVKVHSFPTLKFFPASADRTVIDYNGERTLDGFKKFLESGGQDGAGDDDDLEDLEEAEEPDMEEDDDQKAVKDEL

Structure (SMILES) | EC50 [1] [µM] | IC50 [2] [µM] | IC50 [4] [µM] | IC50 [5] [µM] | further results
Cc1ccc(S(=O)(=O)N2CC2C=O)cc1 (stereo not drawn) [Compound C-3262, 1-(p-Tolylsulfonyl)aziridine-2-carbaldehyde] | 160 | 13.5 ± 0.8 | 6.8 ± 0.8 | 7.2 ± 0.8 | IC50 [3]: 3.8 ± 0.3 µM
CC(=O)C1CN1S(=O)(=O)c1ccc(C)cc1 (stereo not drawn) [Compound C-3263, 1-[1-(p-Tolylsulfonyl)aziridin-2-yl]ethanone] | 140 | 29 ± 0.8 | 9.1 ± 0.5 | 17 ± 0.2 | IC50 [3]: 7.6 ± 0.2 µM
CCCCOc1ccc(S(=O)(=O)N2CC2C(=O)OC)cc1 (stereo not drawn) [Compound C-3271, Methyl 1-(4-butoxyphenyl)sulfonylaziridine-2-carboxylate] | 1 |  |  |  | 
CCCCc1ccc(S(=O)(=O)N2CC2C(C)=O)cc1 (stereo not drawn) [Compound C-3272, 1-[1-(4-Butylphenyl)sulfonylaziridin-2-yl] ethanone] | 0.5 | 57 ± 6 | 8.4 ± 0.9 | 26 ± 0.4 | IC50 [3]: 4.5 ± 0.9 µM
CCCCc1ccc(S(=O)(=O)N2CC2C=O)cc1 (stereo not drawn) [Compound C-3273, 1-(4-Butylphenyl)sulfonylaziridine-2-carbaldehyde] | 3 | 56 ± 12 | 35 ± 3 | 92 ± 2 | IC50 [3]: 31 ± 0.9 µM
CCCCCc1ccc(S(=O)(=O)N2CC2C(=O)OC)cc1 (stereo not drawn) [Compound C-3281, Methyl 1-(4-pentylphenyl)sulfonylaziridine-2-carboxylate] |  |  |  |  | Effect on tumour volume [6]: diminished tumour volume; Effect on animal weight [6]: did not modified animal weight
COC(=O)C1CN1S(=O)(=O)c1cccc2ccccc12 (stereo not drawn) [Compound C-3311, Methyl 1-(1-naphthylsulfonyl)aziridine-2-carboxylate] | 5 |  |  |  | 
Cc1ccc(S(=O)(=O)N2CC2C#N)cc1 (stereo not drawn) [Compound C-3314, 1-(p-Tolylsulfonyl)aziridine-2-carbonitrile] | 4.1 | 14 ± 0.8 | 104 ± 3 | 206 ± 21 | IC50 [3]: 4.5 ± 1 µM
COC(=O)C1CN1S(=O)(=O)c1ccccc1C (stereo not drawn) [Compound C-3320, Methyl 1-(o-tolylsulfonyl)aziridine-2-carboxylate] |  |  | 380 ± 15 |  | 
NC(=O)C1CN1S(=O)(=O)c1ccc(C(F)(F)F)cc1 (stereo not drawn) [Compound C-3324, 1-[4-(Trifluoromethyl)phenyl] sulfonylaziridine-2-carboxamide] |  | 27 ± 3 | 102 ± 12 | 156 ± 9 | IC50 [3]: 510 ± 3 µM
COC(=O)C1CN1S(=O)(=O)c1ccc2cc(OC)ccc2c1 (stereo not drawn) [Compound C-3327, Methyl 1-[(6-methoxy-2-naphthyl)sulfonyl]aziridine-2-carboxylate] |  | 150 ± 10 |  |  | 
COC(=O)C1CN1S(=O)(=O)c1ccc2cc(C)ccc2c1 (stereo not drawn) [Compound C-3329, Methyl 1-[(6-methyl-2-naphthyl)sulfonyl]aziridine-2-carboxylate] |  |  |  |  | Effect on tumour volume [6]: diminished tumour volume; Effect on animal weight [6]: did not modified animal weight
CN(C)C(=O)C1CN1S(=O)(=O)c1ccc(N(C)C)cc1 (stereo not drawn) [Compound C-3357, 1-[4-(Dimethylamino)phenyl] sulfonyl-N,N-dimethyl-aziridine-2-carboxamide] |  | 61 ± 3 | 25 ± 6 | 295 ± 9 | IC50 [3]: 30 ± 1 µM
CCCCc1ccc(S(=O)(=O)N2CC2C(=O)N(C)C)cc1 (stereo not drawn) [Compound C-3362, 1-(4-Butylphenyl)sulfonyl-N,N-dimethyl-aziridine-2-carboxamide] | 0.5 |  |  |  | 
CN(C)C(=O)C1CN1S(=O)(=O)c1cccc2cc(N(C)C)ccc12 (stereo not drawn) [Compound C-3377, 1-[[6-(Dimethylamino)-1-naphthyl]sulfonyl]-N,N-dimethylaziridine-2-carboxamide] |  |  |  | 4.8 ± 0.1 | 
COC(=O)C1CN1S(=O)(=O)c1ccc2cc(N(C)C)ccc2c1 (stereo not drawn) [Compound C-3397, Methyl 1-[[6-(dimethylamino)-2-naphthyl]sulfonyl]aziridine-2-carboxylate] |  |  | 38 ± 2 |  | 
CCCCCCc1ccc(S(=O)(=O)N2CC2C(=O)N2CCOCC2)cc1 (stereo not drawn) [Compound C-3517, [1-(4-Hexylphenyl)sulfonylaziridin-2-yl]-morpholino-methanone] |  |  | 12 ± 1 |  | 

More lines, main results first:

EC50 [1] [µM] | Structure (SMILES) | IC50 [2] [µM] | IC50 [4] [µM] | IC50 [5] [µM] | further results
> 200 | Cc1ccc(S(=O)(=O)N2CC2C(N)=O)cc1 (stereo not drawn) [Compound C-3220, 1-(p-Tolylsulfonyl)aziridine-2-carboxamide] |  |  |  | 
0.5 | COC(=O)C1CN1S(=O)(=O)c1ccc(C(F)(F)F)cc1 (stereo not drawn) [Compound C-3256, Methyl 1-[4-(trifluoromethyl)phenyl]sulfonylaziridine-2-carboxylate] |  |  |  | 
0.8 | CCCCCCCCCCCCc1ccc(S(=O)(=O)N2CC2C(=O)OC)cc1 (stereo not drawn) [Compound C-3270, Methyl 1-(4-dodecylphenyl)sulfonylaziridine-2-carboxylate] |  |  |  | 
0.4 | CCCCCCCc1ccc(S(=O)(=O)N2CC2C(=O)OC)cc1 (stereo not drawn) [Compound C-3288, Methyl 1-(4-heptylphenyl)sulfonylaziridine-2-carboxylate] |  |  |  | 
0.4 | COC(=O)C1CN1S(=O)(=O)c1ccc(C(C)(C)C)cc1 (stereo not drawn) [Compound C-3290, Methyl 1-(4-tert-butylphenyl)sulfonylaziridine-2-carboxylate] |  |  | 29 ± 4 | 
0.4 | COC(=O)C1CN1S(=O)(=O)c1ccc(-c2ccccc2)cc1 (stereo not drawn) [Compound C-3291, Methyl 1-(4-phenylphenyl)sulfonylaziridine-2-carboxylate] |  |  |  | 
0.8 | CCCc1ccc(S(=O)(=O)N2CC2C(=O)OC)cc1 (stereo not drawn) [Compound C-3299, Methyl 1-(4-propylphenyl)sulfonylaziridine-2-carboxylate] |  |  |  | 
18 | COC(=O)C1CN1S(=O)(=O)c1ccc(NC(C)=O)cc1 (stereo not drawn) [Compound C-3308, Methyl 1-(4-acetamidophenyl)sulfonylaziridine-2-carboaylate] | 100 ± 5 | > 500 | 485 ± 32 | IC50 [3]: 120 ± 6 µM
> 200 | COC(=O)C1CN1S(=O)(=O)c1ccco1 (stereo not drawn) [Compound C-3346, Methyl 1-(2-furylsulfonyl)aziridine-2-carboxylate] | 17 ± 2 | > 200 | 458 ± 6 | IC50 [3]: 169 ± 11 µM
0.04 | CCCCCCc1ccc(S(=O)(=O)N2CC2C(=O)N(C)C)cc1 (stereo not drawn) [Compound C-3369, 1-(4-Hexylphenyl)sulfonyl-N,N-dimethyl-aziridine-2-carboxamide] |  |  |  | 
0.7 | CN(C)C(=O)C1CN1S(=O)(=O)c1ccc(N(C)C)c2ccccc12 (stereo not drawn) [Compound C-3385, 1-[[4-(Dimethylamino)-1-naphthyl]sulfonyl] -N,N-dimethylaziridine-2-carboxamide] |  |  |  | 
12.3 | CN(C)C(=O)C1CN1S(=O)(=O)c1ccc(F)cc1F (stereo not drawn) [Compound C-3403, 1-(2,4-Difluorophenyl)sulfonyl-N,N-dimethyl-aziridine-2-carboxamide] |  |  |  | 
11 | CC(C)(C)c1ccc(S(=O)(=O)N2CC2C(N)=O)cc1 (stereo not drawn) [Compound C-3591, 1-(4-tert-Butylphenyl)sulfonylaziridine-2-carboxamide] |  |  |  | 
26 | CN(C)C(=O)C1CN1S(=O)(=O)c1ccc(C(C)(C)C)cc1 (stereo not drawn) [Compound C-3594, 1-(4-tert-Butylphenyl)sulfonyl-N,N-dimethyl-aziridine-2-carboxamide] |  |  |  | 
54.4 | Cc1ccc(S(=O)(=O)N2CC2C(=O)O)cc1 (stereo not drawn) [Compound C-3612, Lithium 1-tosylaziridine-2-carboxylate] |  |  |  | 
